This note sets out measurements from the supplement of paper PMC11616607.

The first experiment deals with OVCAR4. In words: drug sensitivity score (DSS) from 5-point dose-response viability curve (DSS (area-under-curve based score)); higher = more sensitive (stronger growth inhibition or killing); extreme values may be limits of the assay. The settings on record: exposure time: 72 h; concentration range: 5 concentrations over 10,000-fold range. A digest of the protocol: (§1)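 Drug sensitivity scores were calculated in Breeze software for each cell line and drug pair; higher scores indicate more sensitivity. A score of zero indicates no response. The underlying assay used 384-well plates: drugs were placed by an Echo 550 acoustic dispenser at five concentrations spanning a 10,000-fold range, 1,500 ovarian cancer or normal ovarian cells were added per well, and cells were kept 3 days at 37°C, 5% CO2. Viability was then measured with CellTiter-Glo luminescence on a PHERAstar FS.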
`CCNC(=O)c1noc(-c2cc(C(C)C)c(O)cc2O)c1-c1ccc(CN2CCOCC2)cc1` [Luminespib] gave a drug sensitivity score of 9.8.
The same measure, in the same setting: with `O=C(O)CC[C@H]1CC[C@@](c2cc(F)ccc2F)(S(=O)(=O)c2ccc(Cl)cc2)CC1` [MK-0752] the figure was 0; with `NC1(c2ccc(-c3nc4ccn5c(=O)[nH]nc5c4cc3-c3ccccc3)cc2)CCC1` [MK-2206], 0.4; with `O=C(c1cccc(Cl)c1F)N1CCN(Cc2cccc(Nc3nccs3)n2)CC1` [MK-8745], 1.1.
`Cn1cc(-c2cnn3c(N)c(Br)c([C@@H]4CCCNC4)nc23)cn1` [MK-8776]: the drug sensitivity score was found to be 0.
Still for that read-out and setting: the same measure for `Cc1cnc(-c2ccccc2C(C)C)nc1NCc1ccc(-n2ccnn2)cc1` [ML323]: 1.5; for `O=C(CCNC(=O)c1ccc(OC(F)(F)F)cc1)N[C@@H]1CCCc2ccccc21` [ML390]: 0; for `O=C(Nc1cccc(NC(=O)c2cccc(O)c2O)c1)c1cccc(O)c1O` [MST-312]: 7.2.
Turning to `CNC(=O)[C@@H](NC(=O)[C@H](CC(C)C)[C@H](O)C(=O)NO)C(C)(C)C` [Marimastat], the drug sensitivity score was determined as 0.1.
In turn, `Cc1ccc(NC(=O)c2ccc(CN3CCN(C)CC3)cc2)cc1Nc1nc(-c2cccnc2)cs1` [Masitinib] registered a drug sensitivity score of 2.1.
For `CC(=O)O[C@]1(C(C)=O)CC[C@H]2[C@@H]3C=C(C)C4=CC(=O)CC[C@]4(C)[C@H]3CC[C@@]21C` [Megestrol acetate], the drug sensitivity score was 0.
For `CCN(CC)CCCC(C)Nc1c2ccc(Cl)cc2nc2ccc(OC)cc12` (stereo not drawn) [Mepacrine], the drug sensitivity score was determined as 15.2.
Consider `S=c1[nH]cnc2nc[nH]c12` [Mercaptopurine], for which the drug sensitivity score was 12.3.
The molecule `Cc1ccc(C(=O)Nc2ccc(Oc3cc4cnn(C)c4cc3-c3cn[nH]c3)c(F)c2)c(=O)n1-c1ccc(F)cc1` [Merestinib] came in with a drug sensitivity score of 0.4.
As to `CN(C)C(=N)NC(=N)N` [Metformin], the drug sensitivity score was 0.
`CN(Cc1cnc2nc(N)nc(N)c2n1)c1ccc(C(=O)N[C@@H](CCC(=O)O)C(=O)O)cc1` [Methotrexate] yielded a drug sensitivity score of 14.8.

In another experiment the test system is CAOV3. Described as above. The settings on record: exposure time: 72 h; concentration range: 5 concentrations over 10,000-fold range. The gist of the method:
as §1
The molecule `Nc1cc(COc2c(Cl)cc(C[C@H](N)C(=O)O)cc2Cl)c2oc(-c3ccccc3)nc2c1` [JPH203] yielded a drug sensitivity score of 0.
As for `CC(C)NC(=O)COc1cccc(-c2nc(Nc3ccc4[nH]ncc4c3)c3ccccc3n2)c1` [KD025], the drug sensitivity score was 0.4.
Still for that read-out and setting: the same measure for `CS(=O)(=O)CCNCc1ccc(-c2ccc3ncnc(Nc4ccc(OCc5cccc(F)c5)c(Cl)c4)c3c2)o1` [Lapatinib]: 2.4; for `O=C(Nc1cnn2ccc(N3CCC[C@@H]3c3cc(F)ccc3F)nc12)N1CC[C@H](O)C1` [Larotrectinib]: 0; for `Oc1ccc2c(c1)CC[C@H](c1ccccc1)[C@@H]2c1ccc(OCCN2CCCC2)cc1` [Lasofoxifene]: 0.
`Nc1cccc2c1CN(C1CCC(=O)NC1=O)C2=O` (stereo not drawn) [Lenalidomide] displayed a drug sensitivity score of 0.
`COc1cc2nccc(Oc3ccc(NC(=O)NC4CC4)c(Cl)c3)c2cc1C(N)=O` [Lenvatinib] gave a drug sensitivity score of 0.
Consider `N#Cc1ccc(C(c2ccc(C#N)cc2)n2cncn2)cc1` [Letrozole], for which the drug sensitivity score stood at 0.
The molecule `Cc1ccc(F)c(NC(=O)Nc2ccc(-c3cccc4[nH]nc(N)c34)cc2)c1` [Linifanib] displayed a drug sensitivity score of 0.
`C[C@]1(O)C[C@@H](c2nc(-c3ccc4ccc(-c5ccccc5)nc4c3)c3c(N)nccn32)C1` [Linsitinib] yielded a drug sensitivity score of 1.4.
Same read-out and setting: with `CCNCCS(=O)(=O)NC[C@@]1(c2ccccc2)SC(NC(=O)C(C)(C)C)=NN1C(=O)C(C)(C)C` [Litronesib] the figure was 23.2.
Turning to `Nc1nc(OCc2cc(Br)cs2)c2[nH]cnc2n1` [Lomeguatrib], the drug sensitivity score stood at 0.
As to `NC(=O)N1CCC(CC(=O)N2CCC([C@H]3c4ncc(Br)cc4CCc4cc(Cl)cc(Br)c43)CC2)CC1` [Lonafarnib], the drug sensitivity score stood at 8.9.
For the molecule `Cc1c(F)cc(C(=O)NC2CC2)cc1-c1ccc(C(=O)NCC(C)(C)C)cn1` [Losmapimod], the drug sensitivity score is 0.
The same measure, in the same setting: the same measure for `CC[C@H](C)C(=O)O[C@H]1C[C@@H](C)C=C2C=C[C@H](C)[C@H](CC[C@@H]3C[C@@H](O)CC(=O)O3)[C@H]21` [Lovastatin]: 0; for `CNC(=O)c1cccc2cc(Oc3ccnc4cc(OCC5(N)CC5)c(OC)cc34)ccc12` [Lucitanib]: 0; for `CCNC(=O)c1noc(-c2cc(C(C)C)c(O)cc2O)c1-c1ccc(CN2CCOCC2)cc1` [Luminespib]: 16.8.
Still for that read-out and setting: with `O=C(O)CC[C@H]1CC[C@@](c2cc(F)ccc2F)(S(=O)(=O)c2ccc(Cl)cc2)CC1` [MK-0752] the figure was 0; with `NC1(c2ccc(-c3nc4ccn5c(=O)[nH]nc5c4cc3-c3ccccc3)cc2)CCC1` [MK-2206], 1.9.
`O=C(c1cccc(Cl)c1F)N1CCN(Cc2cccc(Nc3nccs3)n2)CC1` [MK-8745]: the drug sensitivity score came out at 4.9.
Molecule `Cn1cc(-c2cnn3c(N)c(Br)c([C@@H]4CCCNC4)nc23)cn1` [MK-8776] displayed a drug sensitivity score of 1.3.
Turning to `Cc1cnc(-c2ccccc2C(C)C)nc1NCc1ccc(-n2ccnn2)cc1` [ML323], the drug sensitivity score amounted to 0.3.
As to `O=C(CCNC(=O)c1ccc(OC(F)(F)F)cc1)N[C@@H]1CCCc2ccccc21` [ML390], the drug sensitivity score came out at 0.6.
The molecule `O=C(Nc1cccc(NC(=O)c2cccc(O)c2O)c1)c1cccc(O)c1O` [MST-312] displayed a drug sensitivity score of 6.7.
Consider `CNC(=O)[C@@H](NC(=O)[C@H](CC(C)C)[C@H](O)C(=O)NO)C(C)(C)C` [Marimastat], for which the drug sensitivity score stood at 1.3.
Regarding `Cc1ccc(NC(=O)c2ccc(CN3CCN(C)CC3)cc2)cc1Nc1nc(-c2cccnc2)cs1` [Masitinib], the drug sensitivity score came out at 0.2.
Same read-out and setting: with `CC(=O)O[C@]1(C(C)=O)CC[C@H]2[C@@H]3C=C(C)C4=CC(=O)CC[C@]4(C)[C@H]3CC[C@@]21C` [Megestrol acetate] the figure was 0; with `CCN(CC)CCCC(C)Nc1c2ccc(Cl)cc2nc2ccc(OC)cc12` (stereo not drawn) [Mepacrine], 9.4.
Take `S=c1[nH]cnc2nc[nH]c12` [Mercaptopurine]: the drug sensitivity score stood at 12.4.
Consider `Cc1ccc(C(=O)Nc2ccc(Oc3cc4cnn(C)c4cc3-c3cn[nH]c3)c(F)c2)c(=O)n1-c1ccc(F)cc1` [Merestinib], for which the drug sensitivity score was 0.
In turn, `CN(C)C(=N)NC(=N)N` [Metformin] displayed a drug sensitivity score of 0.
`CN(Cc1cnc2nc(N)nc(N)c2n1)c1ccc(C(=O)N[C@@H](CCC(=O)O)C(=O)O)cc1` [Methotrexate] yielded a drug sensitivity score of 16.7.
